Measurements published in PubChem BioAssay (NCI).
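Step 1: Grow cells in 96-well plates. Step 2: Expose to compound for 48 hours at 5 concentrations. Step 3: Interpolate endpoints linearly; if unreached, use highest concentration. At the TGI there is no net growth.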

What was measured:
Assay in all cases: inhibition of tumour cell growth, NCI panel, 48 h
[1] = tested on: 786-0 renal
[2] = tested on: A549 NSCLC
[3] = tested on: ACHN renal
[4] = tested on: HL-60(TB) leukemia
[5] = tested on: HT29 colon
[6] = tested on: K-562 leukemia
[7] = tested on: LOX IMVI melanoma
[8] = tested on: M14 melanoma
[9] = tested on: NCI-H460 lung
[10] = tested on: NCI-H522 lung
[11] = tested on: NCI/ADR-RES ovarian
[12] = tested on: OVCAR-3 ovarian
[13] = tested on: OVCAR-5 ovarian
[14] = tested on: OVCAR-8 ovarian
[15] = tested on: RPMI-8226 leukemia
[16] = tested on: SK-MEL-28 melanoma
[17] = tested on: SN12C renal
[18] = tested on: SR leukemia
[19] = tested on: TK-10 renal
[20] = tested on: UACC-257 melanoma

Compound | TGI [1] | TGI [2] | TGI [3] | TGI [4] | TGI [5] | TGI [6] | TGI [7] | TGI [8] | TGI [9] | TGI [10] | TGI [11] | TGI [12] | TGI [13] | TGI [14] | TGI [15] | TGI [16] | TGI [17] | TGI [18] | TGI [19] | TGI [20]
CCOC(=O)/C=C(\C(=O)OCC)n1ccc(=O)n(Cc2cn(CCCCOC(C)=O)nn2)c1=O | > 51.1 µM | 45.9 µM | 11.4 µM | 1.25 µM | 21.7 µM | > 34.1 µM | 48.1 µM | 54.8 µM | 57.7 µM | 4.03 µM | 53.3 µM | 29.2 µM | 31.4 µM | 20.1 µM | > 36 µM | 21.2 µM | 43 µM | > 36 µM | 13.6 µM | 32.9 µM
CCOC(=O)C(CCN1CCC2(CC1)C(=O)N(C)CN2c1ccccc1)C(=O)OCC | > 100 µM | > 100 µM | > 100 µM | > 100 µM | > 100 µM | > 100 µM | > 100 µM | > 100 µM | > 100 µM | > 100 µM | > 100 µM | > 100 µM | > 100 µM | > 100 µM | > 100 µM | > 100 µM | > 100 µM | > 100 µM | > 100 µM | > 100 µM
CC1OC(OC2C(OC(=O)[C@]34CCC(C)(C)C[C@H]3C3=CC[C@@H]5[C@@]6(C)CC[C@H](OC7OC(CO)C(O)C(O)C7OC7OC(CO)C(O)C(O)C7O)C(C)(C)[C@@H]6CC[C@@]5(C)[C@]3(C)CC4)OCC(O)C2O)C(O)C(OC2OCC(O)C(O)C2O)C1OC1OCC(O)C(OC2OCC(O)C(O)C2O)C1O (stereo not given in full) | 62.6 µM | 15 µM | 25.9 µM | 10.8 µM | 14.2 µM | 23.2 µM | > 74.6 µM | 6.3 µM | > 100 µM | 9.56 µM | > 100 µM | > 100 µM | 23.5 µM | > 83.2 µM | 24 µM | 4.85 µM | 5.56 µM | 16.2 µM | 29.8 µM | 13.9 µM
O=c1nc(N2CCNCC2)oc2cc(Cl)oc(=O)c12 | 8.66 µM | 20.2 µM | 23.5 µM | 8.47 µM | 12.9 µM | > 27.4 µM | 5.89 µM | 7.94 µM | 22.4 µM | 5.9 µM | 25.8 µM | 15.2 µM | 30 µM | 5.67 µM | 5.62 µM | 15.8 µM | 33.1 µM | 4.41 µM | 23.9 µM | 27.7 µM
COc1ccc(/C=C2\c3cc(OC)c(OC)cc3CCN2C(=O)c2ccccc2)cc1OC | > 100 µM | > 100 µM | > 100 µM | 65 µM | > 100 µM | > 100 µM | > 100 µM | > 100 µM | 87.6 µM | 45.4 µM | 76.4 µM | > 100 µM | > 100 µM | > 100 µM | > 100 µM | > 100 µM | > 100 µM | > 100 µM | > 100 µM | > 100 µM
CC1=C(/C=C/C(C)=C/C=C/C(C)=C/C(=O)OC2CC(n3cc(F)c(=O)[nH]c3=O)OC2CO)C(C)(C)CCC1 (stereo not given) | 16.7 µM | 17.6 µM | 11.6 µM | 7.37 µM | 21.5 µM | 14 µM | 20.6 µM | 17.4 µM | 15.3 µM | 11.4 µM | 24.9 µM | 22.5 µM | 36.8 µM | 23.6 µM | 15.8 µM | 24.6 µM | 32 µM | > 47.2 µM | 25.8 µM | 29.6 µM
COc1ccc(C[C@H]2COC(=O)[C@@H]2Cc2cccc(Br)c2)cc1OC | > 100 µM | > 100 µM | 84.9 µM | 38.6 µM | 60.8 µM | > 100 µM | 14.6 µM | 27.8 µM | 67.2 µM | 47.5 µM | > 100 µM | 60.4 µM | > 100 µM | 69.6 µM | 56.1 µM | 68.4 µM | > 100 µM | 32.8 µM | 82 µM | 56.2 µM
COC(=O)C1=C(O)c2ccc(Cl)cc2S(=O)(=O)N1C | > 100 µM | > 100 µM | > 100 µM | > 100 µM | > 100 µM | > 100 µM | > 100 µM | > 100 µM | > 100 µM | > 100 µM | 95 µM | – | > 100 µM | – | > 100 µM | > 100 µM | > 100 µM | > 100 µM | > 100 µM | > 100 µM
COc1ccc(-c2cc3ccccc3oc2=O)cc1OC | > 100 µM | > 100 µM | > 100 µM | > 100 µM | > 100 µM | > 100 µM | > 100 µM | > 100 µM | – | > 100 µM | > 100 µM | > 100 µM | > 100 µM | > 100 µM | > 100 µM | – | > 100 µM | > 100 µM | > 100 µM | > 100 µM
NCC(=O)Nc1ccc(S(=O)(=O)O)c2cc(S(=O)(=O)O)cc(S(=O)(=O)O)c12 | > 100 µM | > 100 µM | > 100 µM | > 100 µM | > 100 µM | > 100 µM | > 100 µM | > 100 µM | – | > 100 µM | > 100 µM | > 100 µM | > 100 µM | > 100 µM | > 100 µM | > 100 µM | > 100 µM | > 100 µM | > 100 µM | > 100 µM
Cc1ncc([N+](=O)[O-])n1CCNCCCCn1ccnc1[N+](=O)[O-] | > 100 µM | > 100 µM | > 100 µM | > 100 µM | > 100 µM | > 100 µM | > 100 µM | > 100 µM | > 100 µM | > 100 µM | > 100 µM | > 100 µM | > 100 µM | > 100 µM | > 100 µM | > 100 µM | > 100 µM | > 100 µM | > 100 µM | > 100 µM
COC1=C(Br)[C@H](O)[C@@]2(C=C1Br)CC(C(=O)NCCCOc1c(Br)cc(C(O)CNC(C)=O)cc1Br)=NO2 (stereo not given in full) | > 10 µM | > 10 µM | > 10 µM | > 10 µM | > 10 µM | > 10 µM | > 10 µM | > 10 µM | > 10 µM | > 10 µM | > 10 µM | > 10 µM | > 10 µM | > 10 µM | > 10 µM | > 10 µM | > 10 µM | 1.77 µM | > 10 µM | > 10 µM
